Source: PubChem BioAssay AID1985 (Southern Research Specialized Biocontainment Screening …, 2009)

System: S. Typhi PhoP-promoter GFP reporter, fluorescence, 4 h
Assay: PhoP regulon inhibitor project modified counter assay, GFP fluorescence readout, dose response (AID 1985)

SMILES | IC50 [µM]
COc1cccc(F)c1C(C[N+](=O)[O-])c1c(N)n(C)c(=O)n(C)c1=O (stereo not drawn) | 142
c1cc2c(cc1C1CCCCC1)c1c3n2CCCNC3CCC1 (stereo not drawn) | 39.9
O=C(CC(=O)c1c(F)cccc1Cl)c1ccccc1O | 41.4
O=c1c2ccccc2nc(-c2cccc(Cl)c2)n1O | 113
COc1cc2c(cc1O)[C@H](Cc1ccc(Oc3cc(C[C@@H]4NCCc5cc(OC)c(O)cc54)ccc3O)cc1)NCC2 | 56.9
Cc1[nH]c2ccc(OC(F)(F)F)cc2c1CCNCc1ccc(Cl)cc1 | 36.3
CN(C)CCCn1c(SCC(=O)N2c3ccccc3Sc3ccccc32)nc2ccccc2c1=O | 145
Oc1c(CN2CCCCC2)cc(Br)c2cccnc12 | 19.8
OCCN1CCN(C2Cc3cc(Cl)ccc3Sc3ccc(Cl)cc32)CC1 (stereo not drawn) (tested in a mixture with another compound) | 74.8
c1ccc2c(c1)CSc1sccc1C2=C1CCNCC1 | 106
O=C(N/N=C/c1ccc([N+](=O)[O-])o1)C(O)c1ccccc1 (stereo not drawn) | 13.1
CC(/C=N/Nc1nc2ccccc2[nH]1)=C\c1ccccc1 | 71.8
CN(C)CCCNc1c2ccccc2nc2ccccc12 | 64.3
CCn1cc(C(=O)O)c(=O)c2cc(F)c(N3CCNCC3)cc21 | < 0.23
Nc1nc(N)c(Cc2ccc(Cl)cc2Cl)c(N)n1 | 103
Fc1ccc(Nc2nc(NCc3ccco3)c3ccccc3n2)cc1 | 15.1
O=[N+]([O-])c1ccc(O)c(/C=N/Nc2ccccn2)c1 | 15.2
Cc1nonc1C(=O)N/N=C/c1ccc(O)cc1O | 29.7
N#C/C(=C\c1ccc[nH]1)C(=O)NC1CC1 | 63.7
CCn1nnc(NC(=O)c2ccc([N+](=O)[O-])o2)n1 | 28.4

SMILES | IC50 [µM]
O=C(CCN1CCN(c2ccccc2)CC1)N/N=C/c1ccc([N+](=O)[O-])o1 | 70.2
O=C(NNC(=S)NC(=O)c1ccco1)c1ccc(F)cc1 | 96.8
O=[N+]([O-])c1cc(/C=N/Nc2nc3ccccc3[nH]2)c(O)cc1O | 24.8
O=C(Nc1ccccc1)c1ccc2nsnc2c1 | < 0.23
CCCCCC(=O)NC(=S)NNC(=O)CC | 84.2
CC(C(=O)NC1C=CS(=O)(=O)C1)N1C(=O)/C(=C/c2ccc(Cl)cc2)SC1=S (stereo not drawn) | 22.2
O=c1[nH][nH]c(-c2ccccc2O)c1C(C[N+](=O)[O-])c1ccc(Br)cc1 (stereo not drawn) | 71.7
O=C(N/N=C/c1cccs1)c1ccc2nc[nH]c2c1 | 136
CCC(/C=C1\Sc2ccc(OC)cc2N1CCO)=C\c1sc2ccc(OC)cc2[n+]1CCO | 95
Oc1ccc(/C=N/Nc2nccnc2Cl)c(O)c1 | 65.8
COc1nccnc1NS(=O)(=O)c1ccc(N=Cc2c(C)[nH]n(-c3ccc(C)c(C)c3)c2=O)cc1 | 114
[O-][n+]1c2c(c3c4non(O)c4ccc31)CCCC2 | 130
Cc1cc(C(C)(C)CC(C)(C)C)ccc1OCCOCC[N+](C)(C)Cc1ccccc1 | 31.6
C#CCOCCOCCOCCNc1nc(N2CCN(C(=O)[C@H](Cc3cc4ccccc4[nH]3)n3cc([C@@H](N)C(C)CC)nn3)CC2)nc(N2CCN(C(=O)[C@H](Cc3cc4ccccc4[nH]3)n3cc([C@@H](N)CC(C)C)nn3)CC2)n1 (stereo partly drawn) | 54.5
COc1ccc(N2C(=O)CC(N3CC=C(c4ccccc4)CC3)C2=O)cc1 (stereo not drawn) | 82.4
Oc1ccc(C[C@@H]2CNCCN2CCCCC2CCCCC2)cc1 | 74.3
O=C1c2ccccc2NC(c2ccc(-c3ccc(Br)cc3)o2)N1O (stereo not drawn) | 81.1
Cc1ccc(-n2c(-c3ccc(Br)cc3)c[n+]3c2CCc2ccc4cccnc4c2-3)cc1 | 97.5
Cc1cccc(Nc2nc(NCc3ccco3)c3ccccc3n2)c1 | 11
CCCCOc1ccc(NC2=NC3(CCCC3)N=C(N)N2)cc1 | 72.9

SMILES | IC50 [µM]
CCCCCCCCCC[N+](C)(C)CC/C=C1/c2ccccc2Sc2ccc(Cl)cc21 | 16.5
Oc1ccc(N=Nc2ccc(Br)cc2)c(O)c1 | 87.8
NC(N)=N/N=C/c1ccc(OCc2ccc(Cl)cc2Cl)cc1 | 16.9
O=c1c2c([nH]c3ccccc13)CCCCC2 | 78.4
COc1ccc(CCN2CCC(Nc3nc4ccccc4n3Cc3ccc(F)cc3)CC2)cc1 | 105
CSc1ccc2c(c1)C(N1CCN(C)CC1)Cc1ccccc1S2 (stereo not drawn) | 55.6
Oc1ccccc1C(Nc1nccs1)c1ccc2cccnc2c1O (stereo not drawn) | 34.8
CC[C@@H](C)[C@H](CNC)NC[C@@H](Cc1cccc2ccccc12)NCCc1cccc(C(F)(F)F)c1 | 21.8
CCCCOc1ccc(Br)cc1CSC(=N)N | 56.5
COc1cc(Br)cc(C=Nc2cccc(C(F)(F)F)c2)c1O | 69.4
NC1CCN(c2nc3c(cc2F)c(=O)c(C(=O)O)cn3-c2ccc(F)cc2F)C1 (stereo not drawn) | < 0.23
O=C(/C=C/c1ccccc1)c1ccc(NC2=NCCCS2)cc1 | 117
Oc1cccc(Nc2nc(NCC3CCCO3)c3ccccc3n2)c1 (stereo not drawn) | 77.3
O=C(CCN1CCOCC1)c1ccc(Br)cc1 | 129
Brc1ccc2c(c1)C(OC1CN3CCC1CC3)c1ccccc1CS2 (stereo not drawn) | 95.5
NC1=NC2(CCCCC2)N=C(Nc2ccc(Br)cc2)N1 | 28.8
O=CN/N=C/c1c(O)ccc2ccccc12 | 49
CCOc1ccc(OCCSc2nc3ccccc3[nH]2)cc1 | 106
